{
  "source": "patent US7410975B2",
  "about": "“Small molecule toll-like receptor (TLR) antagonists” (Coley Pharmaceutical Group, Inc., priority 2003, dated 2008)",
  "molecular_target": "T1, human TLR9 (hTLR9) (Homo sapiens, UniProt Q9NR96)",
  "T1 construct": "expressed in transfected cells",
  "T1 sequence (Q9NR96 26-1032)": "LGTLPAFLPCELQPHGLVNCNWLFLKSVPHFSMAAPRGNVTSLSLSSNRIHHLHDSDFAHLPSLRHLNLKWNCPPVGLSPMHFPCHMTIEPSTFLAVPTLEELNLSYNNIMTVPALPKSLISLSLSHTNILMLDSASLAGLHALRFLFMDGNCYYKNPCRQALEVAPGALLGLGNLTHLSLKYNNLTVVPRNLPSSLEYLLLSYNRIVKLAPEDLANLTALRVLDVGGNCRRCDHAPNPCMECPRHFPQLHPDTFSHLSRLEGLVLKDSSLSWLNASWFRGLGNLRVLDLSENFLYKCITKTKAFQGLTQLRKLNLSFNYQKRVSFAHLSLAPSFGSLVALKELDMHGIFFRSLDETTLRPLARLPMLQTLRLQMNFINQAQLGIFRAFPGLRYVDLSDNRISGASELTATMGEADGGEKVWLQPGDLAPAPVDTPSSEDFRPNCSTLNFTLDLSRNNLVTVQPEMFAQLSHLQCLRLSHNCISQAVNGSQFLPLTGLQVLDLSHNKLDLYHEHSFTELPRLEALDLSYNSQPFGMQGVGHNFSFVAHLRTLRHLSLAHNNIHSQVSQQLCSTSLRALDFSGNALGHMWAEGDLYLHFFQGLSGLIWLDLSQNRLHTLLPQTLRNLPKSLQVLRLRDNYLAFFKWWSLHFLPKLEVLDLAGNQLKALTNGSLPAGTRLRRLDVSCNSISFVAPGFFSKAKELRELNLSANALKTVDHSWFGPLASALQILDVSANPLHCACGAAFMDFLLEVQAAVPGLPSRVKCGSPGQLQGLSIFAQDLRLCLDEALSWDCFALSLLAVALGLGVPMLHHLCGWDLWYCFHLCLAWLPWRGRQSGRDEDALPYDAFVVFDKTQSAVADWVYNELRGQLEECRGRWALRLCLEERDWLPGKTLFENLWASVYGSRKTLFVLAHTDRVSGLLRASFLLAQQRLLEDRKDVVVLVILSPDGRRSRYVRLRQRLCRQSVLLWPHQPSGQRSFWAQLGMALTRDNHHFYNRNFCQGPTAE",
  "assay": "Antagonist screen, hTLR9-NFκB-293 cells, 6× NF-κB-luciferase reporter, with EC50 of CpG ODN 2006",
  "format": "cell-based",
  "conditions": "for hTLR9 (inhibitory effect, antagonist score): compound at 0.5, 5, 50 μg/ml, EC50 concentration of CpG ODN 2006, 16 h, NF-κB-luciferase; for hTLR9 (inhibitory effect): hTLR9-NFκB-293 cells, with EC50 of CpG ODN 2006, compound at 0.5, 5 and 50 μg/ml",
  "outline": "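Luciferase fold induction was compared with the ligand-alone baseline, and antagonism was scored by the lowest concentration giving clear down-regulation.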",
  "note": "Where a name gives a salt, the structure may show the parent alone.",
  "data": [
    {"smiles": "CN1CCc2cccc3c2[C@H]1Cc1ccc(O)c(O)c1-3.Cl", "note": "[compound 101, Apomorphinehydrochloride (R, —)]", "values": [
      {"measurement": "hTLR9 (inhibitory effect, antagonist score)", "result": "12 (compounds for which there was clear down regulation at 5 μg/ml and 50 μg/ml)"}
    ]},
    {"smiles": "CC(C)(C)c1ccc(C(O)CCCN2CCC(C(O)(c3ccccc3)c3ccccc3)CC2)cc1", "note": "(stereo not shown) [compound 138, Terfenadine]", "values": [
      {"measurement": "hTLR9 (inhibitory effect, antagonist score)", "result": "12 (compounds for which there was clear down regulation at 5 μg/ml and 50 μg/ml)"}
    ]},
    {"smiles": "CN(C)C(=O)C(CCN1CCC(O)(c2ccc(Cl)cc2)CC1)(c1ccccc1)c1ccccc1", "note": "[compound 144, Loperamidehydrochloride]", "values": [
      {"measurement": "hTLR9 (inhibitory effect, antagonist score)", "result": "12 (compounds for which there was clear down regulation at 5 μg/ml and 50 μg/ml)"}
    ]},
    {"smiles": "COc1cc2cc3c4cc(OC)c(OC)cc4cc[n+]3c(C)c2cc1OC", "note": "[compound 431, Coralyne chloridehydrate]", "values": [
      {"measurement": "hTLR9 (inhibitory effect)", "result": "13 (compounds for which there was clear down regulation at 0.5 μg/ml, 5 μg/ml, and 50 μg/ml)"}
    ]},
    {"smiles": "COc1ccc(Cc2nccc3cc(OC)c(OC)cc23)cc1OC.Cl", "note": "[compound 583, Papaverinehydrochloride]", "values": [
      {"measurement": "hTLR9 (inhibitory effect)", "result": "12 (compounds for which there was clear down regulation at 5 μg/ml and 50 μg/ml)"}
    ]},
    {"smiles": "COc1ccc2cc3[n+](cc2c1OC)CCc1cc2c(cc1-3)OCO2.[Cl-]", "note": "[compound 586, Berberine chloride]", "values": [
      {"measurement": "hTLR9 (inhibitory effect)", "result": "— (compounds for which there was no clear down regulation even at 50 μg/ml)"}
    ]},
    {"smiles": "COc1cc2c(cc1O)C[C@H]1c3c(cc(O)c(OC)c3-2)CCN1C", "note": "[compound 600, Boldine]", "values": [
      {"measurement": "hTLR9 (inhibitory effect, antagonist score)", "result": "12 (compounds for which there was clear down regulation at 5 μg/ml and 50 μg/ml)"}
    ]},
    {"smiles": "CN1CCc2cc3c(c4c2C1Cc1ccccc1-4)OCO3.Cl", "note": "(stereo not shown) [compound 669, Remerine hydrochloride]", "values": [
      {"measurement": "hTLR9 (inhibitory effect, antagonist score)", "result": "— (compounds for which there was no clear down regulation even at 50 μg/ml)"}
    ]},
    {"smiles": "COc1cc2nc(N3CCN(C(=O)C4CCCO4)CC3)nc(N)c2cc1OC.Cl", "note": "(stereo not shown) [compound 751, Terazosin hydrochloride]", "values": [
      {"measurement": "hTLR9 (inhibitory effect, antagonist score)", "result": "13 (compounds for which there was clear down regulation at 0.5 μg/ml, 5 μg/ml, and 50 μg/ml)"}
    ]},
    {"smiles": "CC[N+](C)(CC)CCC[n+]1c(-c2ccccc2)c2cc(N)ccc2c2ccc(N)cc21.[I-].[I-]", "note": "[compound 792, Propidium iodide]", "values": [
      {"measurement": "hTLR9 (inhibitory effect)", "result": "12 (compounds for which there was clear down regulation at 5 μg/ml and 50 μg/ml)"}
    ]},
    {"smiles": "CN(C)CCN(Cc1ccc(Cl)cc1)c1ccccn1.Cl", "note": "[compound 807, Chloro-pyraminehydrochloride]", "values": [
      {"measurement": "hTLR9 (inhibitory effect)", "result": "12 (compounds for which there was clear down regulation at 5 μg/ml and 50 μg/ml)"}
    ]},
    {"smiles": "CCOc1ccc(Cc2nccc3cc(OCC)c(OCC)cc23)cc1OCC.Cl", "note": "[compound 830, Ethaverinehydrochloride]", "values": [
      {"measurement": "hTLR9 (inhibitory effect)", "result": "11 (compounds for which there was clear down regulation only at 50 μg/ml)"}
    ]},
    {"smiles": "COc1cc2nc(N3CCN(C(=O)C4COc5ccccc5O4)CC3)nc(N)c2cc1OC.CS(=O)(=O)O", "note": "(stereo not shown) [compound 858, Doxazosin mesylate]", "values": [
      {"measurement": "hTLR9 (inhibitory effect, antagonist score)", "result": "13 (compounds for which there was clear down regulation at 0.5 μg/ml, 5 μg/ml, and 50 μg/ml)"}
    ]},
    {"smiles": "O=c1c2c(nc(NCCO)n1-c1ccccc1)-c1ccccc1CC21CCCC1", "note": "[compound 891]", "values": [
      {"measurement": "hTLR9 (inhibitory effect)", "result": "11 (compounds for which there was clear down regulation only at 50 μg/ml)"}
    ]},
    {"smiles": "O=c1c2c(nc(NCCO)n1Cc1ccccc1)-c1ccccc1CC21CCCC1", "note": "[compound 926]", "values": [
      {"measurement": "hTLR9 (inhibitory effect)", "result": "11 (compounds for which there was clear down regulation only at 50 μg/ml)"}
    ]},
    {"smiles": "CN1CCc2c1nc1ccccc1c2N", "note": "[compound 990, 1-Methyl-2,3-dihydro-1H-pyrrolo[2,3-b]quinolin-4-ylamine]", "values": [
      {"measurement": "hTLR9 (inhibitory effect)", "result": "13 (compounds for which there was clear down regulation at 0.5 μg/ml, 5 μg/ml, and 50 μg/ml)"}
    ]},
    {"smiles": "CN1CCc2c1nc1ccccc1c2NC(=O)CN1CCCCCC1", "note": "[compound 1003]", "values": [
      {"measurement": "hTLR9 (inhibitory effect)", "result": "13 (compounds for which there was clear down regulation at 0.5 μg/ml, 5 μg/ml, and 50 μg/ml)"}
    ]},
    {"smiles": "Cc1ccc2nc3c(c(N)c2c1)CCN3C", "note": "[compound 1091, 1,6-Dimethyl-2,3-dihydro-1H-pyrrolo[2,3-b]quinolin-4-ylamine]", "values": [
      {"measurement": "hTLR9 (inhibitory effect)", "result": "13 (compounds for which there was clear down regulation at 0.5 μg/ml, 5 μg/ml, and 50 μg/ml)"}
    ]},
    {"smiles": "Cc1ccc(-n2c(NCCO)nc3c(c2=O)C2(CCCCC2)Cc2ccccc2-3)cc1", "note": "[compound 1137]", "values": [
      {"measurement": "hTLR9 (inhibitory effect)", "result": "11 (compounds for which there was clear down regulation only at 50 μg/ml)"}
    ]},
    {"smiles": "CN1CCc2c1nc1ccc(Br)cc1c2N", "note": "[compound 1142, 6-Bromo-1-methyl-2,3-dihydro-1H-pyrrolo[2,3-b]quinolin-4-ylamine]", "values": [
      {"measurement": "hTLR9 (inhibitory effect)", "result": "13 (compounds for which there was clear down regulation at 0.5 μg/ml, 5 μg/ml, and 50 μg/ml)"}
    ]},
    {"smiles": "O=C1c2ccc(S(=O)(=O)c3ccc4c(c3)C(=O)N(c3ccccn3)C4=O)cc2C(=O)N1c1ccccn1", "note": "[compound 1163]", "values": [
      {"measurement": "hTLR9 (inhibitory effect)", "result": "11 (compounds for which there was clear down regulation only at 50 μg/ml)"}
    ]},
    {"smiles": "CN1CCCCc2c1nc1ccccc1c2N", "note": "[compound 1185, 1-Methyl-2,3,4,5-tetrahydro-1H-azepino[2,3-b]quinolin-6-ylamine]", "values": [
      {"measurement": "hTLR9 (inhibitory effect)", "result": "13 (compounds for which there was clear down regulation at 0.5 μg/ml, 5 μg/ml, and 50 μg/ml)"}
    ]},
    {"smiles": "CN1CCc2c1nc1ccccc1c2NC(=O)CN1CCN(c2ccccc2)CC1", "note": "[compound 1212]", "values": [
      {"measurement": "hTLR9 (inhibitory effect)", "result": "12 (compounds for which there was clear down regulation at 5 μg/ml and 50 μg/ml)"}
    ]},
    {"smiles": "Cn1c(NN)nc2c(c1=O)C1(CCCC1)Cc1ccccc1-2", "note": "[compound 1213]", "values": [
      {"measurement": "hTLR9 (inhibitory effect)", "result": "— (compounds for which there was no clear down regulation even at 50 μg/ml)"}
    ]},
    {"smiles": "Nc1c2c(nc3ccccc13)N(Cc1ccccc1)CC2", "note": "[compound 1217, 1-Benzyl-2,3-dihydro-1H-pyrrolo[2,3-b]quinolin-4-ylamine]", "values": [
      {"measurement": "hTLR9 (inhibitory effect)", "result": "13 (compounds for which there was clear down regulation at 0.5 μg/ml, 5 μg/ml, and 50 μg/ml)"}
    ]},
    {"smiles": "CCCCCCN(CCCCCC)CC(=O)Nc1c2c(nc3ccccc13)N(C)CC2", "note": "[compound 1224]", "values": [
      {"measurement": "hTLR9 (inhibitory effect)", "result": "11 (compounds for which there was clear down regulation only at 50 μg/ml)"}
    ]},
    {"smiles": "O=C(CN1CCCC1)Nc1c2c(nc3ccccc13)N(c1ccccc1)CC2", "note": "[compound 1244]", "values": [
      {"measurement": "hTLR9 (inhibitory effect)", "result": "12 (compounds for which there was clear down regulation at 5 μg/ml and 50 μg/ml)"}
    ]},
    {"smiles": "NNc1nc2c(c(=O)n1C1CCCC1)C1(CCCC1)Cc1ccccc1-2", "note": "[compound 1248]", "values": [
      {"measurement": "hTLR9 (inhibitory effect)", "result": "— (compounds for which there was no clear down regulation even at 50 μg/ml)"}
    ]},
    {"smiles": "NNc1nc2c(c(=O)n1-c1ccccc1)C1(CCCC1)Cc1ccccc1-2", "note": "[compound 1320]", "values": [
      {"measurement": "hTLR9 (inhibitory effect)", "result": "13 (compounds for which there was clear down regulation at 0.5 μg/ml, 5 μg/ml, and 50 μg/ml)"}
    ]},
    {"smiles": "O=c1[nH]c(NCCO)nc2c1C1(CCCC1)Cc1ccccc1-2", "note": "[compound 1322]", "values": [
      {"measurement": "hTLR9 (inhibitory effect)", "result": "— (compounds for which there was no clear down regulation even at 50 μg/ml)"}
    ]},
    {"smiles": "CCCCCCCCCCCC(=O)Nc1c2c(nc3ccccc13)N(C)CC2", "note": "[compound 1334]", "values": [
      {"measurement": "hTLR9 (inhibitory effect)", "result": "11 (compounds for which there was clear down regulation only at 50 μg/ml)"}
    ]},
    {"smiles": "O=C1c2ccc(Oc3ccc(S(=O)(=O)c4ccc(Oc5ccc6c(c5)C(=O)N(c5ccccn5)C6=O)cc4)cc3)cc2C(=O)N1c1ccccn1", "note": "[compound 1367]", "values": [
      {"measurement": "hTLR9 (inhibitory effect)", "result": "— (compounds for which there was no clear down regulation even at 50 μg/ml)"}
    ]},
    {"smiles": "CCN(CC)CCCC(C)Nc1nc(/C=C/c2ccc(Cl)cc2)nc2cc3ccccc3cc12", "note": "(stereo not shown) [compound 2000]", "values": [
      {"measurement": "hTLR9 (inhibitory effect, antagonist score)", "result": "13 (compounds for which there was clear down regulation at 0.5 μg/ml, 5 μg/ml, and 50 μg/ml)"}
    ]},
    {"smiles": "CCN(CC)CCCNc1nc(-c2ccccc2)nc2ccccc12", "note": "[compound 2001]", "values": [
      {"measurement": "hTLR9 (inhibitory effect, antagonist score)", "result": "13 (compounds for which there was clear down regulation at 0.5 μg/ml, 5 μg/ml, and 50 μg/ml)"}
    ]}
  ]
}
